Data: the NIST ThermoML archive (doi:10.1016/j.fluid.2005.09.019)

Experiments:
[1] = Crystal; visual observation
[2] = wn = mass fraction of the nth substance listed; settings: Other PVT measurement

CCCCCCCCOC(=O)c1cccc(-c2cccc(C(=O)OCCCCCCCC)c2)c1 [dioctyl [1,1'-biphenyl]-3,3'-dicarboxylate]
Settings | Normal melting temperature [°C]
[1] | 29.00

O=C(OCCC(F)(F)C(F)(F)C(F)(F)C(F)(F)C(F)(F)C(F)(F)F)c1cccc(-c2cccc(C(=O)OCCC(F)(F)C(F)(F)C(F)(F)C(F)(F)C(F)(F)C(F)(F)F)c2)c1
Settings | Normal melting temperature [°C]
[1] | 72.00

O=C(OCCC(F)(F)C(F)(F)C(F)(F)C(F)(F)C(F)(F)C(F)(F)F)c1cccc(-c2cccc(C(=O)OCCC(F)(F)C(F)(F)C(F)(F)C(F)(F)C(F)(F)C(F)(F)F)c2)c1 + O=C=O
[2], Fluid (supercritical or subcritical phases)
Settings | mass density [kg/m3]
294.55 K, 5980 kPa, w1 = 0.135 | 744
295.05 K, 6070 kPa, w1 = 0.116 | 768
295.15 K, 6170 kPa, w1 = 0.016 | 745
295.55 K, 6240 kPa, w1 = 0.279 | 976
295.95 K, 6280 kPa, w1 = 0.405 | 1054
296.45 K, 6310 kPa, w1 = 0.334 | 950
296.55 K, 6380 kPa, w1 = 0.206 | 904
298.35 K, 6620 kPa, w1 = 0.206 | 900
298.75 K, 6590 kPa, w1 = 0.116 | 782
299.15 K, 6730 kPa, w1 = 0.405 | 1049
299.75 K, 6610 kPa, w1 = 0.273 | 933
299.75 K, 6900 kPa, w1 = 0.135 | 737
299.95 K, 6860 kPa, w1 = 0.279 | 962
300.55 K, 6930 kPa, w1 = 0.334 | 967
301.15 K, 6900 kPa, w1 = 0.273 | 932
301.95 K, 7070 kPa, w1 = 0.279 | 954
302.75 K, 7520 kPa, w1 = 0.016 | 689
303.15 K, 7240 kPa, w1 = 0.334 | 957
303.35 K, 7310 kPa, w1 = 0.116 | 763
303.35 K, 7340 kPa, w1 = 0.135 | 723
303.35 K, 7550 kPa, w1 = 0.206 | 880
303.45 K, 7240 kPa, w1 = 0.273 | 887
304.75 K, 8270 kPa, w1 = 0.279 | 952
305.35 K, 7520 kPa, w1 = 0.273 | 827
305.85 K, 7660 kPa, w1 = 0.273 | 782
305.95 K, 7620 kPa, w1 = 0.016 | 654
312.75 K, 10240 kPa, w1 = 0.116 | 752
318.45 K, 12270 kPa, w1 = 0.135 | 711
320.65 K, 13200 kPa, w1 = 0.279 | 925
321.05 K, 12890 kPa, w1 = 0.334 | 931
321.05 K, 13270 kPa, w1 = 0.206 | 856
322.65 K, 11510 kPa, w1 = 0.016 | 622
327.85 K, 14660 kPa, w1 = 0.405 | 1001
330.05 K, 15000 kPa, w1 = 0.405 | 999
332.45 K, 15960 kPa, w1 = 0.135 | 688
338.55 K, 17380 kPa, w1 = 0.116 | 719
342.75 K, 18790 kPa, w1 = 0.206 | 816
344.35 K, 18760 kPa, w1 = 0.334 | 898
345.35 K, 18820 kPa, w1 = 0.405 | 969
346.15 K, 19720 kPa, w1 = 0.279 | 879
347.75 K, 16790 kPa, w1 = 0.016 | 585
348.55 K, 19620 kPa, w1 = 0.135 | 665
360.65 K, 22690 kPa, w1 = 0.405 | 949
362.85 K, 23000 kPa, w1 = 0.206 | 777
363.55 K, 22380 kPa, w1 = 0.116 | 673
363.65 K, 23000 kPa, w1 = 0.334 | 862
363.75 K, 19380 kPa, w1 = 0.016 | 554
368.05 K, 24130 kPa, w1 = 0.279 | 835
369.65 K, 24030 kPa, w1 = 0.135 | 639

CCCCCCCCOC(=O)c1cccc(-c2cccc(C(=O)OCCCCCCCC)c2)c1 [dioctyl [1,1'-biphenyl]-3,3'-dicarboxylate] + O=C=O
[2]
Settings | mass density [kg/m3]
294.95 K, 21200 kPa, Gas, w1 = 0.018 | 883
295.55 K, 15610 kPa, Gas, w1 = 0.62 | 1089
296.05 K, 6100 kPa, Fluid (supercritical or subcritical phases), w1 = 0.277 | 750
298.55 K, 6480 kPa, Fluid (supercritical or subcritical phases), w1 = 0.277 | 734
302.15 K, 7070 kPa, Fluid (supercritical or subcritical phases), w1 = 0.277 | 701
304.15 K, 7450 kPa, Fluid (supercritical or subcritical phases), w1 = 0.277 | 682
305.75 K, 23790 kPa, Gas, w1 = 0.018 | 856
306.05 K, 16070 kPa, Gas, w1 = 0.62 | 1076
312.65 K, 17750 kPa, Gas, w1 = 0.62 | 1052
313.75 K, 126340 kPa, Gas, w1 = 0.496 | 1150
318.65 K, 92850 kPa, Gas, w1 = 0.496 | 1121
324.55 K, 104160 kPa, Gas, w1 = 0.092 | 1160
324.65 K, 110450 kPa, Gas, w1 = 0.286 | 1131
326.85 K, 147870 kPa, Gas, w1 = 0.131 | 1240
328.15 K, 88980 kPa, Gas, w1 = 0.092 | 1124
329.05 K, 27960 kPa, Gas, w1 = 0.018 | 804
329.05 K, 90520 kPa, Gas, w1 = 0.286 | 1097
329.05 K, 137580 kPa, Gas, w1 = 0.256 | 1150
329.15 K, 121140 kPa, Gas, w1 = 0.388 | 1178
329.35 K, 116110 kPa, Gas, w1 = 0.201 | 1141
330.85 K, 105180 kPa, Gas, w1 = 0.388 | 1139
330.85 K, 113860 kPa, Gas, w1 = 0.256 | 1125
331.25 K, 106000 kPa, Gas, w1 = 0.131 | 1160
332.25 K, 83070 kPa, Gas, w1 = 0.286 | 1083
332.65 K, 20850 kPa, Gas, w1 = 0.62 | 1031
333.45 K, 68350 kPa, Gas, w1 = 0.496 | 1075
333.65 K, 93560 kPa, Gas, w1 = 0.201 | 1111
340.55 K, 73300 kPa, Gas, w1 = 0.092 | 1062
341.95 K, 70330 kPa, Gas, w1 = 0.286 | 1044
344.15 K, 77780 kPa, Gas, w1 = 0.388 | 1077
344.35 K, 77640 kPa, Gas, w1 = 0.256 | 1045
345.15 K, 74290 kPa, Gas, w1 = 0.201 | 1048
347.45 K, 60240 kPa, Gas, w1 = 0.496 | 1049
348.95 K, 30510 kPa, Gas, w1 = 0.018 | 760
350.05 K, 73950 kPa, Gas, w1 = 0.131 | 1054
352.15 K, 66510 kPa, Gas, w1 = 0.092 | 1019
352.95 K, 62980 kPa, Gas, w1 = 0.286 | 1010
353.95 K, 24590 kPa, Gas, w1 = 0.62 | 1013
353.95 K, 69580 kPa, Gas, w1 = 0.256 | 1015
358.75 K, 65340 kPa, Gas, w1 = 0.201 | 1005
360.85 K, 67620 kPa, Gas, w1 = 0.388 | 876
363.25 K, 57970 kPa, Gas, w1 = 0.496 | 997
365.65 K, 63340 kPa, Gas, w1 = 0.092 | 979
365.85 K, 33480 kPa, Gas, w1 = 0.018 | 726
366.35 K, 66790 kPa, Gas, w1 = 0.131 | 1002
366.65 K, 59240 kPa, Gas, w1 = 0.286 | 976
369.85 K, 63030 kPa, Gas, w1 = 0.256 | 969
370.45 K, 27170 kPa, Gas, w1 = 0.62 | 997
372.25 K, 61790 kPa, Gas, w1 = 0.201 | 968
